Test results: patent USRE47689E1, “Compounds for treating spinal muscular atrophy” (PTC Therapeutics, Inc., priority 2011, dated 2019)
Where two headings read alike, the source gives them in different places.

Assays:
Smn protein = Smn protein assay in cultured cells (SMN HTRF); assay type: cell-based, human; details: 48 hours; for maximum fold (Fold) increase of Smn protein: SMA patient fibroblast cells, 7-point concentration data, fold increase relative to vehicle control (SMN HTRF); for EC1.5x (concentration giving 1.5-fold Smn protein increase): SMA Type 1 patient fibroblast cells (GM03813), 7-point concentration curve, SMN HTRF, concentration producing 1.5 times Smn protein vs DMSO vehicle control, read-out: EC1.5x for Smn protein expression
Method in brief: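 Smn in SMA fibroblast lysates, measured by anti-SMN HTRF after 48 h compound exposure; EC1.5x from fold change over vehicle.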

[1] = tested on: SMN2 minigene (full length SMN2 minigene mRNA containing SMN2 exon 7); assay: SMN2 minigene mRNA splicing RT-qPCR assay in cultured cells; assay type: cell-based, human; details: Homo sapiens, HEK293-H, read-out: EC1.5x for production of full length SMN2 mRNA
Method in brief: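 Full-length SMN2 minigene mRNA (exon 7 included), minigene-specific and not endogenous SMN, quantified by RT-qPCR multiplexed with GAPDH in stably transfected HEK293H cells after 24 h compound exposure at 37° C. Abundance from efficiency-corrected Ct, normalized to GAPDH and vehicle; EC1.5x reported as star bins.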

[2] = HEK293H cells stably transfected with SMN2-A minigene, 24 hours, 7-point concentration curve, 1.5-fold relative to vehicle-treated cells

| Compound | melting point [°C] | maximum fold (Fold) increase of Smn protein (Smn protein) | EC (1.5-fold) [1, 2] [µM] | EC1.5x (concentration giving 1.5-fold Smn protein increase) (Smn protein) [nM] | EC (1.5-fold) ([1]; 24 h) [µM] |
| --- | --- | --- | --- | --- | --- |
| C[C@H]1CN(c2ccc3cc(-c4cn5ccsc5n4)c(=O)oc3c2)CCN1 [Compound 205, 3-(imidazo[2,1-b][1,3]thiazol-6-yl)-7-[(3S)-3-methylpiperazin-1-yl]-2H-chromen-2-one] | 230 to 233 | *** (fold increase between >1.35 and ≤1.5) | < 0.1 |  |  |
| C[C@@H]1CN(c2ccc3cc(-c4nc5c(Cl)cccc5s4)c(=O)oc3c2)C[C@H](C)N1 [Compound 25, 3-(4-chloro-1,3-benzothiazol-2-yl)-7-[(3R,5S)-3,5-dimethylpiperazin-1-yl]-2H-chromen-2-one] | 229 to 235 | * (maximum fold increase of ≤1.2) | 0.3 to 1 |  |  |
| CN1CCCN(c2ccc3cc(-c4cn5cnccc5n4)c(=O)oc3c2)CC1 [Compound 460, 3-(imidazo[1,2-c]pyrimidin-2-yl)-7-(4-methyl-1,4-diazepan-1-yl)-2H-chromen-2-one] | 225 to 227 | *** (fold increase between >1.35 and ≤1.5) | 0.1 to 0.3 | 3000 to 10000 |  |
| CN1CCN(c2ccc3cc(-c4cn5cccnc5n4)c(=O)oc3c2)CC1 [Compound 87, 3-(imidazo[1,2-a]pyrimidin-2-yl)-7-(4-methylpiperazin-1-yl)-2H-chromen-2-one] | > 310 | **** (fold increase between >1.5 and ≤1.65) | 0.3 to 1 | 1000 to 3000 |  |
| O=c1oc2cc(N3CCNCC3)ccc2cc1-c1cc2ncccn2c1 [Cpd 579, 7-(piperazin-1-yl)-3-(pyrrolo[1,2-a]pyrimidin-7-yl)-2H-chromen-2-one] | 235 to 238 | * (maximum fold increase of ≤1.2) | 0.3 to 1 |  |  |
| Cc1cn2cc(-c3cc4ccc(N5CCN(CCO)CC5)cc4oc3=O)cc2c(C)n1 [Compound 685, 3-(1,3-dimethylpyrrolo[1,2-a]pyrazin-7-yl)-7-[4-(2-hydroxyethyl)piperazin-1-yl]-2H-chromen-2-one] | 160 to 164 | **** (fold increase between >1.5 and ≤1.65) | < 0.1 | < 300 |  |
| C[C@@H]1CN(c2ccc3cc(-c4cn5ccncc5n4)c(=O)oc3c2)C[C@H](C)N1 [Compound 417, 7-[(3R,5S)-3,5-dimethylpiperazin-1-yl]-3-(imidazo[1,2-a]pyrazin-2-yl)-2H-chromen-2-one] | 248 to 250 | *** (fold increase between >1.35 and ≤1.5) | 0.1 to 0.3 | < 300 |  |
| Cc1cn2cc(-c3cc4ccc(CCCNCc5ccncc5)cc4oc3=O)nc2c(C)n1 [Compound 936, 3-(6,8-dimethylimidazo[1,2-a]pyrazin-2-yl)-7-{3-[(pyridin-4-ylmethyl)amino]propyl}-2H-chromen-2-one] | 155 to 159 | ***** (fold increase >1.65) | < 0.1 | < 300 |  |
| O=c1oc2cc(N3CCNCC3)ccc2cc1-c1cn2cccc(C(F)(F)F)c2n1 [Compound 209, 7-(piperazin-1-yl)-3-[8-(trifluoromethyl)imidazo[1,2-a]pyridin-2-yl]-2H-chromen-2-one] | 249 to 252 | * (maximum fold increase of ≤1.2) | 0.3 to 1 |  |  |
| CCN1CCN(c2ccc3cc(-c4cn5cccnc5n4)c(=O)oc3c2)CC1 [Compound 108, 7-(4-ethylpiperazin-1-yl)-3-(imidazo[1,2-a]pyrimidin-2-yl)-2H-chromen-2-one] | 300 to 302 | **** (fold increase between >1.5 and ≤1.65) | 1 to 3 | 300 to 1000 |  |
| Cc1cn2cc(-c3cc4ccc(CN5CCN(C)CC5)cc4oc3=O)nc2c(C)n1 [Compound 849, 3-(6,8-dimethylimidazo[1,2-a]pyrazin-2-yl)-7-[(4-methylpiperazin-1-yl)methyl]-2H-chromen-2-one] | 220 to 223 | ***** (fold increase >1.65) | 0.1 to 0.3 | 300 to 1000 |  |
| Cc1ccn2cc(-c3cc4ccc(N5CCNCC5)cc4oc3=O)nc2c1 [Compound 131, 3-(7-methylimidazo[1,2-a]pyridin-2-yl)-7-(piperazin-1-yl)-2H-chromen-2-one] | 260 to 270 | *** (fold increase between >1.35 and ≤1.5) | 0.3 to 1 |  |  |
| CN1CCN(c2ccc3cc(-c4nc(C(F)(F)F)cs4)c(=O)oc3c2)CC1.O=C(O)C(F)(F)F [Compound 53, 7-(4-methylpiperazin-1-yl)-3-[4-(trifluoromethyl)-1,3-thiazol-2-yl]-2H-chromen-2-one trifluoroacetate] | 260 to 270 | ** (fold increase between >1.2 and ≤1.35) | 3 to 30 |  |  |
| Cc1cn2cc(-c3cc4ccc(C5CCN(C(C)C)CC5)cc4oc3=O)nc2c(C)n1 [Cpd 773, 3-(6,8-dimethylimidazo[1,2-a]pyrazin-2-yl)-7-[1-(propan-2-yl)piperidin-4-yl]-2H-chromen-2-one] | 206 to 211 | **** (fold increase between >1.5 and ≤1.65) | < 0.1 | < 300 |  |
| CCN1CCN(c2ccc3cc(-c4cn5cc(C)ncc5n4)c(=O)oc3c2)C[C@@H]1C [Compound 627, 7-[(3S)-4-ethyl-3-methylpiperazin-1-yl]-3-(6-methylimidazo[1,2-a]pyrazin-2-yl)-2H-chromen-2-one] | 205 to 208 | ***** (fold increase >1.65) | < 0.1 | < 300 |  |
| Cc1ccc2oc(-c3cc4ccc(N5CCN6CCC[C@@H]6C5)cc4oc3=O)cc2n1 [Compound 721, 7-[(8aR)-hexahydropyrrolo[1,2-a]pyrazin-2(1H)-yl]-3-(5-methylfuro[3,2-b]pyridin-2-yl)-2H-chromen-2-one] | 195 to 198 | * (maximum fold increase of ≤1.2) | 1 to 3 |  |  |
| Cc1cc(F)c2nc(-c3cc4ccc(N5CCN6CCC5CC6)cc4oc3=O)cn2c1 [Compound 561, 7-(1,4-diazabicyclo[3.2.2]non-4-yl)-3-(8-fluoro-6-methylimidazo[1,2-a]pyridin-2-yl)-2H-chromen-2-one] | 287 to 297 | **** (fold increase between >1.5 and ≤1.65) | 0.3 to 1 | < 300 |  |
| Cc1c(-c2cn3cc(Cl)ccc3n2)c(=O)oc2cc(N3CCNCC3)ccc12 [Cpd 112, 3-(6-chloroimidazo[1,2-a]pyridin-2-yl)-4-methyl-7-(piperazin-1-yl)-2H-chromen-2-one] | 224 to 227 | * (maximum fold increase of ≤1.2) | 3 to 30 |  |  |
| C[C@H]1CN(c2ccc3cc(-c4ccncc4)c(=O)oc3c2)CCN1 [Compound 549, 7-[(3S)-3-methylpiperazin-1-yl]-3-(pyridin-4-yl)-2H-chromen-2-one] | 210 to 213 | ** (fold increase between >1.2 and ≤1.35) |  |  | 1 to 3 |
| C[C@H]1CN(c2ccc3cc(-c4cn5cc(C6CC6)cc(F)c5n4)c(=O)oc3c2)CCN1 [Compound 498, 3-(6-cyclopropyl-8-fluoroimidazo[1,2-a]pyridin-2-yl)-7-[(3S)-3-methylpiperazin-1-yl]-2H-chromen-2-one] | 254 to 263 | * (maximum fold increase of ≤1.2) | 0.3 to 1 |  |  |
| Cc1cn2cc(-c3cc4ccc(N5CCN6CCC[C@@H]6C5)cc4oc3=O)nc2cn1 [Compound 625, 7-[(8aR)-hexahydropyrrolo[1,2-a]pyrazin-2(1H)-yl]-3-(6-methylimidazo[1,2-a]pyrazin-2-yl)-2H-chromen-2-one] | 240 to 245 | *** (fold increase between >1.35 and ≤1.5) | < 0.1 | 300 to 1000 |  |
| CCCN1CCN(c2ccc3cc(-c4cn5cccnc5n4)c(=O)oc3c2)CC1 [Compound 109, 3-(imidazo[1,2-a]pyrimidin-2-yl)-7-(4-propylpiperazin-1-yl)-2H-chromen-2-one] | 291 to 293 | *** (fold increase between >1.35 and ≤1.5) | 1 to 3 | 3000 to 10000 |  |
| CN(C)CCN(C)c1ccc2cc(-c3cn4cccnc4n3)c(=O)oc2c1 [Compound 130, 7-{[2-(dimethylamino)ethyl](methyl)amino}-3-(imidazo[1,2-a]pyrimidin-2-yl)-2H-chromen-2-one] | 175 to 180 | * (maximum fold increase of ≤1.2) | 1 to 3 |  |  |
